A word on the IC50: it is the concentration that inhibits the measured activity by half.

Results on 30 compounds are retold here after patent US10457687B2, “Aminoacid derivatives, a process for their preparation and pharmaceutical compositions containing them” (LES LABORATOIRES SERVIER, priority 2015, dated 2019).

The target in the first experiment is Mcl-1 protein (Homo sapiens, UniProt Q07820). The experiment is described as follows: Inhibition of Mcl-1 by the fluorescence polarisation technique (Method 1 or Method 2). The conditions noted are these: fluorescence polarisation, Fluorescein labelled ligand; Method 1 (not underlined) or Method 2 (underlined); read-out: IC50 (μM) Mcl-1 FP. The class given is binding. As to the method: The relative binding potency of each compound was determined via Fluorescence Polarisation (FP).
Sequence of Mcl-1 protein (Q07820 whole entry): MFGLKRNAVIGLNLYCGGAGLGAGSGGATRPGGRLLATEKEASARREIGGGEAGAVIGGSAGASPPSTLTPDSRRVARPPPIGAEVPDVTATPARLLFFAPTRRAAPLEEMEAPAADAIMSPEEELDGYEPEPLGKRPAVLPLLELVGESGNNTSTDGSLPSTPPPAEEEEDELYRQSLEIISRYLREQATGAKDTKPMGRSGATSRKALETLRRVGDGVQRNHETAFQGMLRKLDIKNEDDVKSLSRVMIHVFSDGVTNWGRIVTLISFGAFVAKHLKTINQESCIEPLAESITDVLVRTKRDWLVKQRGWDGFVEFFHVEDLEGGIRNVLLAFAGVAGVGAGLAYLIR
An 11 point serial dilution of each compound was prepared in DMSO and 2 μl transferred into flat bottomed, low binding, 384-well plate (final DMSO concentration 5%). 38 μl of buffer (10 mM 4-(2-hydroxyethyl)-1-piperazineethanesulfonic acid [HEPES], 150 mM NaCl, 0.05% Tween 20, pH 7.4), containing the Fluorescein labelled ligand (final concentration 1 nM) and Mcl-1 protein (final concentration 5 nM) was then added.
An 11 point serial dilution of each compound was prepared in DMSO and 2 μl transferred into flat bottomed, low binding, 384-well plate (final DMSO concentration 5%). 38 μl of buffer (20 mM Na2HPO4, 1 mM EDTA, 50 mM NaCl, pH 7.4), containing the Fluorescein labelled ligand (final concentration 10 nM) and Mcl-1 protein (final concentration 10 nM) was then added.
(In fluorescence polarisation assays a small probe gives low polarisation when free and higher when bound to something large.)
As to `CCc1sc2ncnc(NC(Cc3ccc(F)cc3)C(=O)O)c2c1-c1cccc2ccccc12` [Example 176, N-[6-ethyl-(5Ra)-5-(naphthalen-1-yl)thieno[2,3-d]pyrimidin-4-yl]-4-fluoro-D-phenylalanine], the IC50 is 8.41 µM.

As for `CCc1sc2ncnc(NC(Cc3ccccc3)C(=O)O)c2c1-c1ccc(OCCN2CCOCC2)c(Cl)c1C` [Example 61, N-((5Sa)-5-{3-chloro-2-methyl-4-[2-(morpholin-4-yl)ethoxy]phenyl}-6-ethylthieno[2,3-d]pyrimidin-4-yl)-D-phenylalanine], the 50% inhibitory concentration (IC50) came out at 0.036 µM.

With `CC(C)(O)c1sc2ncnc(NC(Cc3ccccc3)C(=O)O)c2c1-c1cccc2ccccc12` [Example 210, N-[6-(2-hydroxypropan-2-yl)-(5Sa)-5-(naphthalen-1-yl)thieno[2,3-d]pyrimidin-4-yl]-D-phenylalanine], the IC50 was 8.36 µM.

On to `CCc1sc2ncnc(N[C@H](Cc3ccccc3C)C(=O)O)c2c1-c1cccc2ccccc12` (single isomer, unassigned) [Example 167, N-[6-ethyl-5-(naphthalen-1-yl)thieno[2,3-d]pyrimidin-4-yl]-2-methyl-D-phenylalanine], for which the half-inhibitory concentration (IC50) was 1.15 µM.

For `CCc1sc2ncnc(N[C@@H](C(=O)O)c3ccccc3-c3ccccc3)c2c1-c1cccc2ccccc12` (single isomer, unassigned) [Example 188], the half-inhibitory concentration (IC50) worked out at 21.3 µM.

As for `CCc1sc2ncnc(NC(Cc3ccccc3)C(=O)O)c2c1-c1cccc2c1c(Cl)cn2CCN1CCOCC1` [Example 237, N-((5Sa)-5-{3-chloro-1-[2-(morpholin-4-yl)ethyl]-1H-indol-4-yl}-6-ethyl-thieno[2,3-d]pyrimidin-4-yl)-D-phenylalanine], the concentration for half-maximal inhibition (IC50) was found to be 0.569 µM.

As for `CCc1sc2ncnc(NC(Cc3ccccc3O)C(=O)O)c2c1-c1cccc2ccccc12` [Example 174, N-[6-ethyl-(5Sa)-5-(naphthalen-1-yl)thieno[2,3-d]pyrimidin-4-yl]-2-hydroxy-D-phenylalanine], the half-maximal inhibitory concentration (IC50) amounted to 0.466 µM.

`CCc1sc2ncnc(NC(Cc3ccccc3)C(=O)O)c2c1-c1cccc2c1c(Cl)cn2CCCN1CCN(C)CC1` [Example 240, N-((5Sa)-5-{3-chloro-1-[3-(4-methylpiperazin-1-yl)propyl]-1H-indol-4-yl}-6-ethyl-thieno[2,3-d]pyrimidin-4-yl)-D-phenylalanine]: the half-maximal inhibitory concentration (IC50) worked out at 0.958 µM.

Regarding `CCc1sc2ncnc(NC(Cc3ccccc3)C(=O)O)c2c1-c1ccc(OCC(=O)O)c(Cl)c1C` [Example 57, N-{(5Sa)-5-[4-(carboxymethoxy)-3-chloro-2-methylphenyl]-6-ethylthieno[2,3-d]pyrimidin-4-yl}-D-phenylalanine], the IC50 was 0.106 µM.

`CCc1sc2ncnc(N[C@@H](C(=O)O)c3cccc(-c4ccccc4)c3)c2c1-c1cccc2ccccc12` (single isomer, unassigned) [Example 189]: the IC50 stood at 8.33 µM.

Take `CCc1sc2ncnc(NC(Cc3ccccc3C#N)C(=O)O)c2c1-c1cccc(Cl)c1C` [Example 127, N-[(5Sa)-5-(3-chloro-2-methylphenyl)-6-ethylthieno[2,3-d]pyrimidin-4-yl]-2-cyano-D-phenylalanine]: the half-maximal inhibitory concentration (IC50) worked out at 0.913 µM.

Turning to `CC(C)c1sc2ncnc(N[C@H](Cc3ccccc3)C(=O)O)c2c1-c1cccc2ccccc12` (single isomer, unassigned) [Example 201, N-[5-(naphthalen-1-yl)-6-(propan-2-yl)thieno[2,3-d]pyrimidin-4-yl]-D-phenylalanine], the IC50 worked out at 0.136 µM.

With `C=Cc1sc2ncnc(NC(Cc3ccccc3)C(=O)O)c2c1-c1cccc2ccccc12` [Example 103, N-[6-ethenyl-(5Ra)-5-(naphthalen-1-yl)thieno[2,3-d]pyrimidin-4-yl]-D-phenylalanine], the half-maximal inhibitory concentration (IC50) stood at 0.715 µM.

On to `CCc1sc2ncnc(NC(Cc3ccccc3)C(=O)O)c2c1-c1cccc(Br)c1C` [Example 96, N-[(5Ra)-5-(3-bromo-2-methylphenyl)-6-ethylthieno[2,3-d]pyrimidin-4-yl]-D-phenylalanine], for which the half-inhibitory concentration (IC50) was 1.63 µM.

Turning to `COc1ccccc1-c1nccc(COc2ccccc2CC(Nc2ncnc3sc(-c4ccc(F)cc4)c(-c4ccc(OCCN5CCN(C)CC5)c(Cl)c4C)c23)C(=O)O)n1` [Example 7, N-[(5Sa)-5-{3-chloro-2-methyl-4-[2-(4-methylpiperazin-1-yl)ethoxy]phenyl}-6-(4-fluorophenyl)thieno[2,3-d]pyrimidin-4-yl]-2-{[2-(2-methoxyphenyl)pyrimidin-4-yl]methoxy}-D-phenylalanine], the IC50 stood at 0.008 µM.

On to `CCc1sc2ncnc(N[C@H](CCc3ccccc3)C(=O)O)c2c1-c1cccc2ccccc12` [Example 169, (2R)-2-{[6-ethyl-5-(naphthalen-1-yl)thieno[2,3-d]pyrimidin-4-yl]amino}-4-phenylbutanoic acid], for which the half-inhibitory concentration (IC50) was found to be 2.1 µM.

As to `CCc1sc2ncnc(NC(Cc3ccccc3)C(=O)O)c2c1-c1cccc2c1c(Cl)cn2CCN1CCOCC1` [Example 236, N-((5Ra)-5-{3-chloro-1-[2-(morpholin-4-yl)ethyl]-1H-indol-4-yl}-6-ethyl-thieno[2,3-d]pyrimidin-4-yl)-D-phenylalanine], the 50% inhibitory concentration (IC50) turned out to be 13.5 µM.

Regarding `CCc1sc2ncnc(NC(Cc3ccccc3)C(=O)O)c2c1-c1cccc2cnn(C)c12` [Example 88, N-[6-ethyl-(5Sa)-5-(1-methyl-1H-indazol-7-yl)thieno[2,3-d]pyrimidin-4-yl]-D-phenylalanine], the IC50 amounted to 1.23 µM.

As for `CCc1sc2ncnc(N[C@H](Cc3ccccc3)C(=O)O)c2c1-c1cccc(F)c1C` [Example 68, N-[6-ethyl-5-(3-fluoro-2-methylphenyl)thieno[2,3-d]pyrimidin-4-yl]-D-phenylalanine], the concentration for half-maximal inhibition (IC50) came out at 0.142 µM.

As for `CCc1sc2ncnc(NC(Cc3ccccc3)C(=O)O)c2c1-c1cccc2[nH]ccc12` [Example 73, N-[6-ethyl-(5Sa)-5-(1H-indol-4-yl)thieno[2,3-d]pyrimidin-4-yl]-D-phenylalanine], the IC50 was 0.276 µM.

For the compound `CC#Cc1sc2ncnc(NC(Cc3ccccc3OCc3ccnc(-c4ccccc4OC)n3)C(=O)O)c2c1-c1ccc(OCCN2CCN(C)CC2)c(Cl)c1C` [Example 45, N-[(5Sa)-5-{3-chloro-2-methyl-4-[2-(4-methylpiperazin-1-yl)ethoxy]phenyl}-6-(prop-1-yn-1-yl)thieno[2,3-d]pyrimidin-4-yl]-2-{[2-(2-methoxyphenyl)pyrimidin-4-yl]methoxy}-D-phenylalanine], the IC50 was 0.005 µM.

Regarding `CCc1sc2ncnc(NC(Cc3ccccn3)C(=O)O)c2c1-c1cccc2c1c(Cl)cn2CCN1CCN(C)CC1` [Example 248, N-((5Sa)-5-{3-chloro-1-[2-(4-methylpiperazin-1-yl)ethyl]-1H-indol-4-yl}-6-ethyl-thieno[2,3-d]pyrimidin-4-yl)-3-pyridin-2-yl-D-alanine], the IC50 turned out to be 2.18 µM.

On to `CCc1sc2ncnc(NC(Cc3ccccc3OCCN3CCN(C)CC3)C(=O)O)c2c1-c1cccc(Cl)c1C` [Example 154, N-[(5Sa)-5-(3-chloro-2-methylphenyl)-6-ethylthieno[2,3-d]pyrimidin-4-yl]-2-[2-(4-methylpiperazin-1-yl)ethoxy]-D-phenylalanine], for which the half-maximal inhibitory concentration (IC50) came to 2.32 µM.

Turning to `CCc1sc2ncnc(NC(Cc3ccccc3)C(=O)O)c2c1-c1cc(Cl)c(O)c(Cl)c1C` [Example 52, N-[(5Ra)-5-(3,5-dichloro-4-hydroxy-2-methylphenyl)-6-ethylthieno[2,3-d]pyrimidin-4-yl]-D-phenylalanine], the 50% inhibitory concentration (IC50) was 0.301 µM.

`CCc1sc2ncnc(N[C@@H](C(=O)O)c3ccccc3)c2c1-c1cccc2ccccc12` (single isomer, unassigned) [Example 161]: the IC50 was determined as 12.6 µM.

`CCCc1sc2ncnc(NC(Cc3ccccc3)C(=O)O)c2c1-c1cccc2ccccc12` [Example 252, N-[(5Sa)-5-(naphthalen-1-yl)-6-propylthieno[2,3-d]pyrimidin-4-yl]-D-phenylalanine]: the half-maximal inhibitory concentration (IC50) amounted to 0.223 µM.

The experiment is the same for the next values; noted with them: partial inhibitors; @ 10 μM test compound.
As to `Cc1c(-c2c(-c3ccsc3)sc3ncnc(NC(Cc4ccccc4F)C(=O)O)c23)ccc(OCCN2CCN(C)CC2)c1Cl` [Example 33, N-[(5Ra)-5-{3-chloro-2-methyl-4-[2-(4-methylpiperazin-1-yl)ethoxy]phenyl}-6-(thiophen-3-yl)thieno[2,3-d]pyrimidin-4-yl]-2-fluoro-D-phenylalanine], the “percentage fluorescence polarisation inhibition, Mcl-1 FP” value worked out at 54.9% @ 10 μM.

The same experiment, now with this note: partial inhibitors; @ 50 μM test compound.
With `CCc1sc2ncnc(N[C@H](Cc3ccccc3C(F)(F)F)C(=O)O)c2c1-c1cccc(Cl)c1C` [Example 137, N-[(5Ra)-5-(3-chloro-2-methylphenyl)-6-ethylthieno[2,3-d]pyrimidin-4-yl]-2-(trifluoromethyl)-D-phenylalanine], the “percentage fluorescence polarisation inhibition, Mcl-1 FP” value was 71.05% @ 50 μM.

For the compound `CCc1sc2ncnc(N[C@H](C(=O)O)[C@H](O)c3ccccc3)c2c1-c1cccc(Cl)c1C` [Example 124, (βR)—N-[(5Ra)-5-(3-chloro-2-methylphenyl)-6-ethylthieno[2,3-d]pyrimidin-4-yl]-beta-hydroxy-L-phenylalanine], the “percentage fluorescence polarisation inhibition, Mcl-1 FP” value worked out at 75.7% @ 50 μM.

For `COc1ccccc1C[C@@H](Nc1ncnc2sc(C(C)C)c(-c3cccc(Cl)c3C)c12)C(=O)O` [Example 222, N-[(5Ra)-5-(3-chloro-2-methylphenyl)-6-(propan-2-yl)thieno[2,3-d]pyrimidin-4-yl]-2-methoxy-D-phenylalanine], the “percentage fluorescence polarisation inhibition, Mcl-1 FP” value came to 70% @ 50 μM.
